The values that follow come from paper PMC6270814, “Effects of Ursolic Acid Derivatives on Caco-2 Cells and Their Alleviating Role in Streptozocin-Induced Type 2 Diabetic Rats” (Molecules, 2014).

Molecules are shown by their SMILES.

For experiment [1], the system named is Caco-2 cells. The experiment in a line: MTT cytotoxicity assay on Caco-2 cells. Type of experiment: cell-based, Human. To be noted: Homo sapiens, 24 h, mean ± SD, n = 4, read-out: Inhibition Rate %. How it is done: Human intestinal Caco-2 cells (ATCC, Rockville, MD, USA) were incubated at 37 °C in a humidified atmosphere of 5% CO2 in air. The cells were cultured in Dulbecco’s […] medium (DMEM) with 10% heat-inactivated fetal bovine serum, 1% non-essential amino acids, 1% L-glutamine, 1% penicillin/streptomycin (Gibco Life Technologies, Grand Island, NY, USA). The cells were sub-cultured at confluence by 0.05% trypsin-0.5 mM EDTA treatment before they were applied in the experiment.
A MTT test was conducted to determine the possible toxicity of UA and its derivatives to Caco-2 cells. Briefly, cells were seeded at a density of 1 × 10^4 cells/mL in a 96-well plate and incubated for 24 h. The next day, cells were incubated with vehicle (0.1% DMSO) and compounds at 100, 50, 25, 12.5 μmol/L for 24 h, and then 5 g/L MTT solution (20 μL) was added for 4 h. Absorbance at 570 nm was measured using a Multimodel Plate Reader (Infinite 200, Tecan, Mannedorf, Switzerland).
On the technique in general: Tetrazolium assays rely on reduction of a dye to a coloured formazan, in cell work by metabolically active cells.

Experiment [2] relates to STZ-induced diabetic rats. Description: Body weight and daily food intake of STZ-induced diabetic rats. Type of experiment: in vivo, rat. The note with it: compounds 100 mg/kg, glibenclamide 10 mg/kg, oral. As to the method:
(§1) Diabetes was induced by a single intraperitoneal injection of streptozotocin (Sigma-Aldrich, St. Louis, MO, USA) at a dose of 65 mg/kg body weight. STZ was dissolved in 0.1 M cold citrate buffer, pH 4.5. Control group were injected with citrate buffer alone. After 7 days for the development of diabetes, plasma glucose levels were determined of each rat. Rats with fasting blood glucose (FBG) range of above 16.7 mmol/L were considered as DM rats and were used for further study.
(§2) According to the body weight and plasma glucose levels the rats were divided randomly into seven groups with six rats each and treated as follows: • Group I: Normal rats treated with 0.5% CMC-Na (2 mL/200 g body weight). • Group II: Diabetic rats treated with 0.5% CMC-Na. • Group III: Diabetic rats treated with 10 mg/kg of glibenclamide. • Group IV: Diabetic rats treated with 100 mg/kg of compound 1 (UA). • Group V: Diabetic rats treated with 100 mg/kg of compound 10. • Group VI: Diabetic rats treated with 100 mg/kg of compound 11. • Group VII: Diabetic rats treated with 100 mg/kg of compound 12.
(§3) The treatment was continued daily for 28 days. Blood glucose levels and body weight were measured every week to ascertain the status of diabetes. After 4 weeks of treatment, the animals were fasted for 12 h and sacrificed by cervical dislocation under mild anaesthetization, blood was collected into heparinized tubes and centrifuged at 2,000 rpm for 10 min. Livers and kidneys were removed, washed and homogenized in ice-cold normal saline. This homogenates were centrifuged at 3,000 rpm for 10 min at 4 °C, and the supernatants were collected for the estimate of antioxidant markers.

For experiment [3], the system named is STZ-induced diabetic rats. The experiment in a line: Fasting blood glucose in STZ-induced diabetic rats, 4 weeks treatment. Type of experiment: in vivo, rat. To be noted: for Fasting Blood Glucose Level, Week 0: Week 0 (before treatment); for Fasting Blood Glucose Level, Week 0 / Fasting Blood Glucose Level, Week 1 / Fasting Blood Glucose Level, Week 2 / Fasting Blood Glucose Level, Week 3 / Fasting Blood Glucose Level, Week 4: compounds 100 mg/kg, n = 6; for Fasting Blood Glucose Level, Week 1 / Fasting Blood Glucose Level, Week 2 / Fasting Blood Glucose Level, Week 3 / Fasting Blood Glucose Level, Week 4: glibenclamide 10 mg/kg daily. How it is done: Adult male albino rats of Sprague-Dawley rats (180–220 g) were obtained from the Guangdong Medical Lab Animal Center, and maintained under standard laboratory conditions in a temperature (25–30 °C) and light-controlled (12-h light/dark cycle) room with 35%–60% humidity. The animals were acclimatized for 10 days before the experiments and provided with rodent chow and water ad libitum. The investigation was conducted in accordance with the Guide for the Care and Use of Laboratory Animals and approved by the institutional Animal Ethics Committee.
as §1, §2, §3
(§4) Fasting blood glucose levels were estimated on days 0, 7, 14, 28 with the single touch glucometer (Life Scan, Johnson & Johnson Company, New Brunswick, NJ, USA). Serum insulin level was measured by use of a commercial immunoassay kit by enzyme linked immunosorbent assay (Uscn. Life Science Inc., Wuhan, China). Serum total protein, albumin, triglycerides (TG), total cholesterol (TC), high-density lipoprotein cholesterol (HDL-C), and low-density lipoprotein cholesterol (LDL-C) were measured with an automatic biochemical analyzer (Sinnowa D240, Nanjing, China).

Experiment [4] deals with STZ-induced diabetic rats. Description: Serum biochemical parameters (insulin, total protein, albumin) in STZ-induced diabetic rats. Type of experiment: in vivo, rat. To be noted: 4 weeks, compounds 100 mg/kg, glibenclamide 10 mg/kg. How it is done: as §1, §2, §3, §4
In experiment [5] the test system is STZ-induced diabetic rats. The experiment in a line: Oxidative stress markers (GSH, SOD, MDA) in liver and kidney of STZ-induced diabetic rats. Type of experiment: in vivo, rat. The note with it: 4 weeks; for MDA level in the liver: daily administration. As to the method:
as §1, §2, §3
The tissue homogenates of liver and kidney were used for the estimate of antioxidant markers. Glutathione (GSH) level was measured with 5, 5'-dithiobis-(2-nitrobenzoic acid) (DTNB) as described by Sedlak and Lindsay. Superoxide dismutase (SOD) activity was assessed according to the method of Sinha. Malondialdehyde (MDA) activity was estimated with the thiobarbituric acid method.

The test system of experiment [6] is STZ-induced diabetic rats. Description: Serum lipid profile (TG, TC, LDL-C, HDL-C) in STZ-induced diabetic rats. Type of experiment: in vivo, rat. The note with it: 4 weeks, compounds 100 mg/kg, glibenclamide 10 mg/kg. How it is done: as §1, §2, §3, §4
Experiment [7] deals with Caco-2 cells. Description: 2-NBDG glucose uptake by Caco-2 cell monolayers, Na+-independent (sodium free buffer). Type of experiment: cell-based, Human. To be noted: 100 μM compound, Na+-independent (KCl/K2HPO4 buffer). As to the method: Caco-2 cells, which were derived from human colon adenocarcinoma, were selected for intestinal absorption studies because these cells express the morphological characteristics and most of the functional properties of differentiated small-intestinal enterocytes. Caco-2 cells were seeded on 24-well plates at the density of 2 × 10^5 cells/well. The medium was changed every 1–2 days, and the culture was carried out for 13 days. Then Caco-2 cells were placed in serum-free media for 24 h and then they were washed twice with Hanks’ balanced salt solution (HBSS, pH 7.5, 140 mM NaCl, 5 mM KCl, 1.2 mM Na2HPO4, 2 mM CaCl2, 1.2 mM MgSO4, 20 mM HEPES, 0.2% bovine serum albumin) before the uptake studies. When a sodium free buffer was required, NaCl and Na2HPO4 were replaced with equal amounts of KCl and K2HPO4, respectively. After washing, the cells were incubated for 15 min at room temperature in HBSS before the commencement of this experiment. The uptake studies were initiated by adding HBSS containing either control or test solution (100 μM) and […] (100 μM) for 30 min at 37 °C. Glucose uptake was stopped by adding twofold volume of ice-cold PBS and the wells were washed with ice-cold PBS three times. Fluorescent intensity was measured by a Multimodel Plate Reader (Tecan Infinity 200) with the 485 nmex and 535 nmemiss filter set before and after adding 2-NBDG. Then the cells were lysed in 200 μL lysis buffer (10 mM Tris-HCl pH = 7.4, 150 mM NaCl, 1% Triton-x-100, 1 mM EDTA, 0.1% SDS) and supplemented immediately before they were processed with 10 μg/mL PMSF. Cells were allowed to lyse on ice, and then vortexed and sonicated. The lysate was used for protein determination, protein concentrations were determined as described by BCA kit (Boster, Wuhan, China) with bovine serum albumin as standard.

Setting [8] is: STZ diabetic rats, glibenclamide 10 mg/kg.

The inhibition is the drop in the measured response relative to a control, in per cent. For `CC(=O)O[C@H]1CC[C@@]2(C)C(CC[C@]3(C)C2CC=C2C4[C@@H](C)[C@H](C)CC[C@]4(C(=O)O)CC[C@]23C)C1(C)C` (some centres unmarked) [Compound 9], the inhibition at 100 µM in experiment [1] came out at 4.4 ± 3.09%.

On to `CC(=O)O[C@H]1CC[C@@]2(C)C(CC[C@]3(C)C2CC=C2C4[C@@H](C)[C@H](C)CC[C@]4(C(=O)Nc4ccccc4Cl)CC[C@]23C)C1(C)C` (some centres unmarked) [Compound 7], for which the inhibition at 100 µM in experiment [1] was 8.14 ± 3.81%.

In the case of `O=C(CCc1ccc(O)cc1)c1c(O)cc(O)cc1O` [Phloretin, reference compound], the inhibition at 100 µM in experiment [1] was found to be 4.7 ± 2.59%.

Consider `C[C@H]1[C@H](C)CC[C@]2(C(=O)O)CC[C@]3(C)C(=CC[C@@H]4[C@@]5(C)CC[C@H](O)C(C)(C)[C@@H]5CC[C@]43C)[C@H]12` [Compound 1, Ursolic acid], for which, in experiment [2], the “daily food intake vs untreated diabetic rats” value is recorded as “no obvious decrease”. Further, the inhibition at 100 µM in experiment [1] worked out at 9.88 ± 6.51%. Moreover, the “effect on lowering fasting blood glucose levels” value in experiment [3] (STZ diabetic rats, 100 mg/kg, 4 weeks) was “no significant effect”. Also, the “Fasting Blood Glucose Level, Week 0” value in experiment [3] (setting [8]) turned out to be 342.00 ± 19.08 mg/dL. Besides, in experiment [3] (STZ diabetic rats), the “Fasting Blood Glucose Level, Week 1” value is given as 405.00 ± 17.46 mg/dL; the “Fasting Blood Glucose Level, Week 2” value was 392.40 ± 13.32 mg/dL; the “Fasting Blood Glucose Level, Week 3” value came to 379.80 ± 19.44 mg/dL; the “Fasting Blood Glucose Level, Week 4” value is on record as 396.00 ± 16.92 mg/dL. Besides, in experiment [4], the “serum albumin level vs diabetic control” value was “no appreciable improvement”, the “serum insulin level vs diabetic control” value is recorded as “non-significant effect” and the “serum total protein level vs diabetic control” value is “no appreciable improvement”. Further, in experiment [5] (kidney of STZ diabetic rats), the “GSH level in kidney” value was “great effect”. Also, in experiment [5] (liver of STZ diabetic rats), the “MDA level in the liver” value is listed as “obviously down-regulated”.

Consider `COc1ccc(Cl)cc1C(=O)NCCc1ccc(S(=O)(=O)NC(=O)NC2CCCCC2)cc1` [Glibenclamide, reference compound], for which the “daily food intake vs untreated diabetic rats” value in experiment [2] is given as “reduce daily food intake significantly”. Besides, the “Fasting Blood Glucose Level, Week 0” value in experiment [3] (setting [8]) is recorded as 338.40 ± 16.38 mg/dL. In experiment [3] (STZ diabetic rats), the “Fasting Blood Glucose Level, Week 1” value is recorded as 271.80 ± 18.36 mg/dL; the “Fasting Blood Glucose Level, Week 2” value was determined as 183.60 ± 11.70 mg/dL; the “Fasting Blood Glucose Level, Week 3” value is 216.00 ± 9.72 mg/dL; the “Fasting Blood Glucose Level, Week 4” value was 203.40 ± 13.50 mg/dL. Besides, the “decrease in blood glucose levels as compared with diabetic control” value in experiment [3] (end of the 4 week treatment, compound 10 100 mg/kg, glibenclamide 10 mg/kg) was 54.4%. In experiment [4], the “serum albumin level vs diabetic control” value was “increased significantly”, the “serum insulin level vs diabetic control” value was “increased significantly” and the “serum total protein level vs diabetic control” value is listed as “increased significantly”. Also, the “SOD level in the liver and kidney” value in experiment [5] (liver and kidney of STZ diabetic rats) is given as “great improvement”. Further, in experiment [5] (liver of STZ diabetic rats), the “GSH level in liver” value is “significant effects” and the “MDA level in the liver” value is listed as “obviously down-regulated”. Moreover, in experiment [6], the “serum TC level vs diabetic control” value is “significantly decreased” and the “serum TG level vs diabetic control” value is “significantly decreased”.

For `CC(=O)O[C@H]1CC[C@@]2(C)C(CC[C@]3(C)C2CC=C2C4[C@@H](C)[C@H](C)CC[C@]4(C(=O)Nc4ccc(F)cc4)CC[C@]23C)C1(C)C` (some centres unmarked) [Compound 3], the inhibition at 100 µM in experiment [1] is 8.65 ± 3.49%.

Consider `CC(=O)O[C@H]1CC[C@@]2(C)C(CC[C@]3(C)C2CC=C2C4[C@@H](C)[C@H](C)CC[C@]4(C(=O)Nc4ccccc4Br)CC[C@]23C)C1(C)C` (some centres unmarked) [Compound 8], for which, in experiment [1], the inhibition at 100 µM amounted to 9.86 ± 2.68%.

On to `O=C(CCc1ccc(O)cc1)c1c(O)cc(O)cc1O[C@@H]1O[C@H](CO)[C@@H](O)[C@H](O)[C@H]1O` [Phlorizin, reference compound], for which the “glucose uptake, % of the control value (Na+-independent)” value in experiment [7] is 75 % of the control value. In addition, in experiment [1], the inhibition at 100 µM worked out at 7.7 ± 3.91%.

On to `CC(=O)O[C@H]1CC[C@@]2(C)C(CC[C@]3(C)C2CC=C2C4[C@@H](C)[C@H](C)CC[C@]4(C(=O)Nc4ccc(Br)cc4)CC[C@]23C)C1(C)C` (some centres unmarked) [Compound 5], for which the inhibition at 100 µM in experiment [1] stood at 8.72 ± 1.18%.

For the compound `CC(=O)O[C@H]1CC[C@@]2(C)C(CC[C@]3(C)C2CC=C2C4[C@@H](C)[C@H](C)CC[C@]4(C(=O)Nc4ccc(Cl)cc4)CC[C@]23C)C1(C)C` (some centres unmarked) [Compound 4], in experiment [1], the inhibition at 100 µM was 8.53 ± 5.69%.

As to `CC(=O)O[C@H]1CC[C@@]2(C)C(CC[C@]3(C)C2CC=C2C4[C@@H](C)[C@H](C)CC[C@]4(C(=O)Nc4ccccc4)CC[C@]23C)C1(C)C` (some centres unmarked) [Compound 2], the inhibition at 100 µM in experiment [1] was found to be 5.02 ± 2.38%.
